What was measured:
[1] = system: anxiety-like responding in rats; experiment: Light-dark box emergence test after foot shock stress (anxiety-like responding); assay type: in vivo, male Sprague-Dawley rats; settings: for Time spent in the light box after foot shock (FS) stress vs No FS: 0.01 μg·kg−1 i.p., 45 min before 5 min test, 24 h after FS
Text: (§1) Animal procedures complied with the Canadian Council on Animal Care, and the protocols were approved by the Institutional Animal Care Committee at University of Guelph. Animal studies are reported in compliance with the ARRIVE guidelines (Kilkenny et al., 2010; McGrath and Lilley, 2015). A total of 200 näive male Sprague-Dawley rats, obtained from Charles River Laboratories (St Constant, Quebec), were used for all in vivo studies. Rats were individually housed (for acute nausea studies) or pair-housed [for anticipatory nausea and light-dark emergence studies] in home cages made of opaque white plastic (48×26×20 cm), containing bed-o-cob bedding from Harlan Laboratories, Inc. (Mississauga, Ontario), a brown paper towel, and Crinkl'Nest™ from The Andersons, Inc. (Maumee, Ohio). Additionally, in the home cage, rats were provided with a soft white paper container that was 14 cm long and 12 cm in diameter. All rats were subjected to an ambient temperature of 21° C. and a 12/12 h light-dark schedule (lights off at 07:00 h) and maintained on food (Highland Rat Chow [8640]) and water ad libitum. For the acute and anticipatory nausea studies, their body weights ranged from 263 to 329 g on the day of conditioning. For the light-dark emergence studies, their body weights ranged from 320 to 387 g on the day of test.
For the in vivo experiment 3, anxiolytic-like responding was evaluated using the light-dark emergence apparatus, which consisted of an opaque white plastic rectangular box that was divided into two compartments: a small (25 cm wide×20.5 cm long×20.5 cm high) enclosed dark box built of opaque black plastic with a door (8 cm wide×10 cm high) leading to a larger (39.5 cm long×25 cm wide) open lit box. The open lit box was illuminated by one lamp (with a 60 W bulb, 180 lux in the light chamber) positioned 115 cm above the center of the lit box. A video camera was mounted over the top of the light-dark box, and the video tapes were analyzed by the Ethovision software (Noldus Information Technology, Leesburg, Va., USA) for the duration of time spent in the light box for the 5 min test. For the foot shock (FS) session, the rats were placed in sound attenuating MED Associates fear conditioning chambers (St. Albans, Vt., USA). The 6 min FS session consisted of six 0.8 mA foot shocks delivered 1 min apart. Each 0.5 s shock was preceded by a 30 s auditory tone (90 Db, 5000 Hz) as described by Bluett et al. (2014).
The effect of CBDA and HU-580 on anxiety-like responding was evaluated using the light-dark box emergence test following either foot shock stress or no foot shock (No FS) stress. […]

[2] = system: contextually elicited conditioned gaping (anticipatory nausea) in rats; experiment: Anticipatory nausea: contextually elicited conditioned gaping in rats; assay type: in vivo, male Sprague-Dawley rats; settings: for Contextually elicited conditioned gaping compared to VEH controls: 45 min before test
Text: as §1
For in vivo experiment 2, contextually elicited conditioned gaping (a model of anticipatory nausea) was measured using a distinctive conditioning chamber made of opaque black Plexiglass (22.5×26×20 cm) with an opaque lid that sat on a table with a clear glass top. A mirror beneath the chamber at a 45° angle facilitated viewing of the ventral surface of the rat to observe orofacial responses. The conditioning chamber was in a dark room next to a 25 W light source. A video camera that was fire-wired into a computer was focused on the mirror to record each rat's orofacial reactions during the 5 min test trial. The video tapes were later scored using ‘The Observer’ software. To assess activity, an activity chamber made of white Plexiglas (60×25×25 cm) was used, illuminated by a red light found in a different room that the contextual chamber was used to create a different context from the AN chamber. The activity of each rat was captured by video camera and sent to the Ethovision software program (Noldus, Inc., NL) to measure distance (cm) travelled.
To compare the potential of HU-580 and CBDA to reduce anticipatory nausea, the contextually elicited conditioned gaping paradigm was used (e.g. Limebeer et al., 2010; Rock et al., 2014). Rats underwent four conditioning trials during which the distinctive context was paired with 127 mg·kg^−1 LiCl. On each trial, rats were injected with LiCl and then immediately placed in the conditioning chamber for 30 min. This procedure was repeated four times with a 48 h interval between conditioning trials. For the test trial, rats were randomly assigned to one of five treatment groups (n=6 per group): VEH, 0.1 μg·kg^−1 CBDA, 0.1 μg·kg^−1 HU-580, 0.01 μg·kg^−1 CBDA, […] HU-580. Pretreatments were injected 45 min before the rats were given an saline injection (20 mL·kg^−1 i.p.) and individually placed in the conditioning (contextual) chamber for 5 min, and orofacial responses were video recorded. To investigate the mechanism of action of HU-580, two additional groups of rats were administered 0.1 mg·kg^−1 WAY-VEH (n=8), 0.1 mg·kg^−1 WAY-0.1 μg·kg^−1 HU-580 (n=8). VEH or WAY100635 were administered 15 min before […] or VEH. The video tapes from the test trial were scored by an observer blind to the experimental conditions using ‘The Observer’ for the behaviors of gaping (large openings of the mouth and jaw, with lower incisors exposed). […]

Compound: C=C(C)[C@@H]1CCC(C)=C[C@H]1c1c(O)cc(CCCCC)c(C(=O)OC)c1O [HU-580, Cannabidiolic Acid Methyl Ester]
- Time spent in the light box after foot shock (FS) stress vs No FS [1]: reversed the effect of FS
- Time spent in the light box after foot shock (FS) stress vs No FS, with 5-HT1A antagonist pretreatment ([1]; WAY100635 15 min before 0.01 μg·kg−1 HU-580 i.p., P=0.05): spent less time in the light box following FS stress than following No FS stress
- Contextually elicited conditioned gaping compared to VEH controls ([2]; 0.01 μg·kg−1 i.p.): gaping significantly less than VEH controls
- Suppressive effect on anticipatory nausea after 5-HT1A antagonist pretreatment ([2]; 0.1 μg·kg−1 HU-580 i.p., WAY100635 0.1 mg·kg−1 15 min before): blocked by pretreatment with WAY100635
- Contextually elicited conditioned gaping compared to VEH controls ([2]; 0.1 μg·kg−1 i.p., P<0.05): reduced conditioned gaping
- Dose as low as which contextually elicited conditioned gaping is suppressed ([2]; i.p., rats): 0.01 µg/kg

Compound: C=C(C)[C@@H]1CCC(C)=C[C@H]1c1c(O)cc(CCCCC)c(C(=O)O)c1O [CBDA, Cannabidiolic acid]
- Time spent in the light box after foot shock (FS) stress vs No FS [1]: spent less time in the light box following FS stress than following No FS stress
- Contextually elicited conditioned gaping compared to VEH controls ([2]; 0.01 μg·kg−1 i.p.): but not CBDA, suppressed contextually elicited conditioned gaping
- Contextually elicited conditioned gaping compared to VEH controls ([2]; 0.1 μg·kg−1 i.p., P<0.05): reduced conditioned gaping

Source: patent publication US11440870B2, “Cannabidiolic acid esters compositions and uses thereof” (Yissum Research Development Company of the Hebrew …, priority 2017, dated 2022)
